Source: patent US20150105252A1, “SUBSTITUTED PYRAZOLES AS HERBICIDES” (E I DU PONT DE NEMOURS AND COMPANY, priority 2013, published 2015)

Legend:
foxtail, giant [1] = assay: Test A preemergence; type: in vivo, Setaria faberii; details: preemergence; for Foxtail, Giant plant response rating (0 to 100 scale): 125 g ai/ha, visual injury approx. 10 days after treatment; for Foxtail, Giant plant response rating: 500 g ai/ha, visual injury after approx. 10 days, 0 to 100 scale (0 no effect, 100 complete control)
Summary of the method: (§1)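 Pre- and postemergence greenhouse test; loam+sand; cpd in non-phytotox. solvent/surfactant; post at 1–2 leaf, 2–10 cm; visual score ~10 d, 0 = none, 100 = complete control.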

sedge, umbrella = assay: Test B flood; type: in vivo, Cyperus difformis; details: 250 g ai/ha, visual rating on 0 to 100 scale (0 no effect, 100 complete control), 13 to 15 days
Summary of the method: (§2)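 Plants were grown to the 2-leaf stage, then pots were flooded to 3 cm above the soil and compounds were applied directly into the paddy water. Water depth was held for the whole test; after 13 to 15 days in a greenhouse, injury was visually rated against untreated controls (0 = no effect, 100 = complete control).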

ducksalad = assay: Test B flood; type: in vivo, Heteranthera limosa; details: 250 g ai/ha, visual rating on 0 to 100 scale (0 no effect, 100 complete control), 13 to 15 days
Summary of the method: as §2

velvetleaf [2] = assay: Test A postemergence; type: in vivo, Abutilon theophrasti
Summary of the method: as §1

wheat [3] = assay: Test A preemergence; type: in vivo, Triticum aestivum; details: preemergence; for Wheat plant response rating (0 to 100 scale): 125 g ai/ha, visual injury approx. 10 days after treatment; for Wheat plant response rating: 500 g ai/ha, visual injury after approx. 10 days, 0 to 100 scale (0 no effect, 100 complete control)
Summary of the method: as §1

barnyardgrass [4] = assay: Test A preemergence; type: in vivo, Echinochloa crus-galli; details: preemergence
Summary of the method: as §1

foxtail, giant [5] = assay: Test A postemergence; type: in vivo, Setaria faberii
Summary of the method: as §1

barnyardgrass [6] = assay: Test B flood; type: in vivo, Echinochloa crus-galli; details: 250 g ai/ha, visual rating on 0 to 100 scale (0 no effect, 100 complete control), 13 to 15 days
Summary of the method: as §2

morningglory [7] = assay: Test A preemergence; type: in vivo, Ipomoea spp.; details: preemergence; for Morningglory plant response rating (0 to 100 scale): 125 g ai/ha, visual injury approx. 10 days after treatment; for Morningglory plant response rating: 500 g ai/ha, visual injury after approx. 10 days, 0 to 100 scale (0 no effect, 100 complete control)
Summary of the method: as §1

corn [8] = assay: Test A postemergence; type: in vivo, Zea mays
Summary of the method: as §1

barnyardgrass [9] = assay: Test A postemergence; type: in vivo, Echinochloa crus-galli
Summary of the method: as §1

crabgrass, large [10] = assay: Test A postemergence; type: in vivo, Digitaria sanguinalis
Summary of the method: as §1

velvetleaf [11] = assay: Test A preemergence; type: in vivo, Abutilon theophrasti; details: preemergence; for Velvetleaf plant response rating (0 to 100 scale): 125 g ai/ha, visual injury approx. 10 days after treatment; for Velvetleaf plant response rating: 500 g ai/ha, visual injury after approx. 10 days, 0 to 100 scale (0 no effect, 100 complete control)
Summary of the method: as §1

crabgrass, large [12] = assay: Test A preemergence; type: in vivo, Digitaria sanguinalis; details: preemergence; for Crabgrass, Large plant response rating (0 to 100 scale): 125 g ai/ha, visual injury approx. 10 days after treatment; for Crabgrass, Large plant response rating: 500 g ai/ha, visual injury after approx. 10 days, 0 to 100 scale (0 no effect, 100 complete control)
Summary of the method: as §1

pigweed [13] = assay: Test A preemergence; type: in vivo, Amaranthus retroflexus; details: preemergence; for Pigweed plant response rating (0 to 100 scale): 125 g ai/ha, visual injury approx. 10 days after treatment; for Pigweed plant response rating: 500 g ai/ha, visual injury after approx. 10 days, 0 to 100 scale (0 no effect, 100 complete control)
Summary of the method: as §1

morningglory [14] = assay: Test A postemergence; type: in vivo, Ipomoea spp.
Summary of the method: as §1

rice = assay: Test B flood; type: in vivo, Oryza sativa; details: 250 g ai/ha, visual rating on 0 to 100 scale (0 no effect, 100 complete control), 13 to 15 days
Summary of the method: as §2

corn [15] = assay: Test A preemergence; type: in vivo, Zea mays; details: preemergence; for Corn plant response rating (0 to 100 scale): 125 g ai/ha, visual injury approx. 10 days after treatment; for Corn plant response rating: 500 g ai/ha, visual injury after approx. 10 days, 0 to 100 scale (0 no effect, 100 complete control)
Summary of the method: as §1

pigweed [16] = assay: Test A postemergence; type: in vivo, Amaranthus retroflexus
Summary of the method: as §1

wheat [17] = assay: Test A postemergence; type: in vivo, Triticum aestivum
Summary of the method: as §1

[18] = Postemergence, 500 g ai/ha, 0 to 100 scale (0 no effect, 100 complete control)
[19] = postemergence, 125 g ai/ha, about 10 days, visual rating on 0 to 100 scale (0 no effect, 100 complete control)
[20] = 125 g ai/ha, visual injury, 0 to 100 scale, approx. 10 days
[21] = 500 g ai/ha, visual injury after approx. 10 days, 0 to 100 scale (0 no effect, 100 complete control)

Compound | Foxtail, Giant plant response rating (0 to 100 scale) (foxtail, giant [1]) | Foxtail, Giant plant response rating (foxtail, giant [1]) | Plant response rating, Sedge, Umbrella (sedge, umbrella) | Plant response rating, Ducksalad (ducksalad) | Velvetleaf plant response rating (velvetleaf [2]; [18]) | Velvetleaf plant response rating (velvetleaf [2]; [19]) | Wheat plant response rating (0 to 100 scale) (wheat [3]) | Wheat plant response rating (wheat [3]) | Barnyardgrass plant response rating (barnyardgrass [4]; [20]) | Barnyardgrass plant response rating (barnyardgrass [4]; [21]) | Foxtail, Giant plant response rating (foxtail, giant [5]; [18]) | Foxtail, Giant plant response rating (foxtail, giant [5]; [19]) | Plant response rating, Barnyardgrass (barnyardgrass [6]) | Morningglory plant response rating (0 to 100 scale) (morningglory [7]) | Morningglory plant response rating (morningglory [7]) | Corn plant response rating (corn [8]; [18]) | Corn plant response rating (corn [8]; [19]) | Barnyardgrass plant response rating (barnyardgrass [9]; [18]) | Barnyardgrass plant response rating (barnyardgrass [9]; [19]) | Crabgrass, Large plant response rating (crabgrass, large [10]; [18]) | further results
CCc1cc(C(=O)NCC(F)(F)F)nn1Cc1nnc(C(F)(F)F)o1 [Compound 146] | 10 | 90 | 0 | 0 | 20 | 10 | 0 | 10 | 0 | 90 | 20 | 0 | 0 | 20 | 100 | 0 | 0 | 10 | 0 | 80 | Crabgrass, Large plant response rating (crabgrass, large [10]; [19]): 10; Velvetleaf plant response rating (0 to 100 scale) (velvetleaf [11]): 10; Velvetleaf plant response rating (velvetleaf [11]): 60; Crabgrass, Large plant response rating (0 to 100 scale) (crabgrass, large [12]): 80; Crabgrass, Large plant response rating (crabgrass, large [12]): 100; Pigweed plant response rating (0 to 100 scale) (pigweed [13]): 100; Pigweed plant response rating (pigweed [13]): 100; Morningglory plant response rating (morningglory [14]; [18]): 80; Morningglory plant response rating (morningglory [14]; [19]): 20; Plant response rating, Rice (rice): 0; Corn plant response rating (0 to 100 scale) (corn [15]): 0; Pigweed plant response rating (pigweed [16]; [18]): 90; Pigweed plant response rating (pigweed [16]; [19]): 60; Wheat plant response rating (wheat [17]; [18]): 0; Wheat plant response rating (wheat [17]; [19]): 0
CCCCc1cc(C(=O)NCC(F)(F)F)nn1Cc1ccnc(C(F)(F)F)c1 [Compound 148] | 10 | 90 | 40 | 30 | 60 | 20 | 0 | 0 | 10 | 40 | 40 | 10 | 0 | 0 | 30 | 40 | 10 | 40 | 10 | 50 | Crabgrass, Large plant response rating (crabgrass, large [10]; [19]): 20; Velvetleaf plant response rating (0 to 100 scale) (velvetleaf [11]): 0; Velvetleaf plant response rating (velvetleaf [11]): 20; Crabgrass, Large plant response rating (0 to 100 scale) (crabgrass, large [12]): 50; Crabgrass, Large plant response rating (crabgrass, large [12]): 100; Pigweed plant response rating (0 to 100 scale) (pigweed [13]): 100; Pigweed plant response rating (pigweed [13]): 100; Morningglory plant response rating (morningglory [14]; [18]): 90; Morningglory plant response rating (morningglory [14]; [19]): 80; Plant response rating, Rice (rice): 15; Corn plant response rating (0 to 100 scale) (corn [15]): 0; Corn plant response rating (corn [15]): 0; Pigweed plant response rating (pigweed [16]; [18]): 100; Pigweed plant response rating (pigweed [16]; [19]): 90; Wheat plant response rating (wheat [17]; [18]): 20; Wheat plant response rating (wheat [17]; [19]): 0
CCCc1cc(C(=O)Nc2ccc(F)cc2)nn1Cc1cc(C(F)(F)F)nn1C [Compound 150] | 0 | 20 | 65 | 0 | 10 | 10 | 0 | 0 | 0 | 0 | 10 | 0 | 0 | 0 | 0 | 10 | 0 | 20 | 0 | 10 | Crabgrass, Large plant response rating (crabgrass, large [10]; [19]): 10; Velvetleaf plant response rating (0 to 100 scale) (velvetleaf [11]): 0; Velvetleaf plant response rating (velvetleaf [11]): 0; Crabgrass, Large plant response rating (0 to 100 scale) (crabgrass, large [12]): 0; Crabgrass, Large plant response rating (crabgrass, large [12]): 20; Pigweed plant response rating (0 to 100 scale) (pigweed [13]): 50; Pigweed plant response rating (pigweed [13]): 100; Morningglory plant response rating (morningglory [14]; [18]): 30; Morningglory plant response rating (morningglory [14]; [19]): 30; Plant response rating, Rice (rice): 15; Corn plant response rating (0 to 100 scale) (corn [15]): 0; Corn plant response rating (corn [15]): 0; Pigweed plant response rating (pigweed [16]; [18]): 80; Pigweed plant response rating (pigweed [16]; [19]): 30; Wheat plant response rating (wheat [17]; [18]): 0; Wheat plant response rating (wheat [17]; [19]): 0
CCCCc1cc(C(=O)NC2CC2)nn1Cc1ccnc(C(F)(F)F)c1 [Compound 151] | 50 | 100 | 60 | 0 | 60 | 30 | 0 | 10 | 0 | 60 | 70 | 20 | 0 | 0 | 30 | 50 | 10 | 50 | 10 | 80 | Crabgrass, Large plant response rating (crabgrass, large [10]; [19]): 30; Velvetleaf plant response rating (0 to 100 scale) (velvetleaf [11]): 0; Velvetleaf plant response rating (velvetleaf [11]): 70; Crabgrass, Large plant response rating (0 to 100 scale) (crabgrass, large [12]): 80; Crabgrass, Large plant response rating (crabgrass, large [12]): 100; Pigweed plant response rating (0 to 100 scale) (pigweed [13]): 70; Pigweed plant response rating (pigweed [13]): 100; Morningglory plant response rating (morningglory [14]; [18]): 90; Morningglory plant response rating (morningglory [14]; [19]): 50; Plant response rating, Rice (rice): 0; Corn plant response rating (0 to 100 scale) (corn [15]): 0; Corn plant response rating (corn [15]): 0; Pigweed plant response rating (pigweed [16]; [18]): 100; Pigweed plant response rating (pigweed [16]; [19]): 70; Wheat plant response rating (wheat [17]; [18]): 10; Wheat plant response rating (wheat [17]; [19]): 0
